pEC50: −log10 of the molar value. Read-outs that look alike come from different tables or passages of the source.
Test system: genotype 1b (Con-1) HCV replicon
Assay: HCV Replicon Luciferase Assay
Format: cell-based
Conditions: Hepatitis C virus, 72 h, Huh-7 genotype 1b replicon, Renilla luciferase, 3 days incubation; for pEC50: read-out: EC50 1b (class); for EC50: read-out: EC50 (uM) 1b
Method: The cell lines used to evaluate compounds consist of a human hepatocyte derived cell line (Huh-7) that constitutively expresses a genotype 1b (Con-1) HCV replicon or a genotype 1b (Con-1) HCV replicon with an asparagine replacing the cysteine at amino acid 316, or a genotype 2a (JFH-1) replicon, containing a Renilla luciferase reporter gene. These cells were maintained in Dulbecco's modified Eagle medium (DMEM) containing 10% FBS, 100 U/mL penicillin/streptomycin and 1.0 mg/mL G418.
To evaluate compound efficacy, titrated compounds were transferred to sterile 384-well tissue culture treated plates, and the plates were seeded with HCV replicon cells (50 μL at a density of 2.4×10^3 cells/well) in DMEM containing 4% FBS (final DMSO concentration at 0.5%). After 3 days incubation at 37° C., cells were analyzed for Renilla Luciferase activity using the EnduRen substrate (Promega cat #E6485) according to the manufacturer's directions. Briefly, the EnduRen substrate was diluted in DMEM and then added to the plates to a final concentration of 7.5 μM. The plates were incubated for at least 1 h at 37° C. then read on a Viewlux Imager (PerkinElmer) using a luminescence program. The 50% effective concentration (EC50) was calculated using the four-parameter logistic Formula noted above.
Compound EC50 data is expressed as A: <100 nM; B=100-1000 nM; C>1000 nM).

## CNC(=O)c1c(-c2ccc(F)cc2)oc2cc(N(C(F)F)S(C)(=O)=O)c(-c3cccc(C(=O)NC(C)(C)C(F)(F)F)c3)cc12 [Compound 6003]
  pEC50: > 7.00
  EC50: 0.0095 µM

## CNC(=O)c1c(-c2ccc(F)cc2)oc2cc(N(CCF)S(C)(=O)=O)c(-c3cccc(C(=O)NC(CF)(CF)CF)c3)cc12 [Compound 3004]
  pEC50: > 7.00

## [2H]C([2H])([2H])C(NC(=O)c1cccc(-c2cc3c(C(=O)NC)c(-c4ccc(F)cc4)oc3cc2N(CCCF)S(C)(=O)=O)c1)(C([2H])([2H])[2H])C([2H])([2H])[2H] [Compound 4006]
  pEC50: > 7.00

## CNC(=O)c1c(-c2ccc(F)cc2)oc2cc(N(CCF)S(C)(=O)=O)c(-c3cccc(C(=O)NC(C)(C)C#N)c3)cc12 [Compound 3005]
  pEC50: > 7.00
  EC50: 0.005 µM

## CNC(=O)c1c(-c2ccc(F)cc2)oc2cc(N(CCCF)S(C)(=O)=O)c(-c3cccc(C(=O)NCC(C)(C)CO)c3)cc12 [Compound 4017]
  pEC50: > 7.00

## C#CC(CC)(CC)NC(=O)c1cccc(-c2cc3c(C(=O)NC)c(-c4ccc(F)cc4)oc3cc2N(CCCF)S(C)(=O)=O)c1 [Compound 4028]
  pEC50: > 7.00
  EC50: 0.0056 µM

## CNC(=O)c1c(-c2ccc(F)cc2)oc2cc(N(CC#N)S(C)(=O)=O)c(-c3cccc(C(=O)NC(C)(C)C(F)(F)F)c3)cc12 [Compound 1002]
  pEC50: > 7.00

## CNC(=O)c1c(-c2ccc(F)cc2)oc2cc(N(CC3CC3)S(C)(=O)=O)c(-c3cccc(C(=O)OC)c3)cc12 [Compound 2001]
  pEC50: > 7.00

## CNC(=O)c1c(-c2ccc(F)cc2)oc2cc(NCCCF)c(-c3cccc(C(=O)NC(C)(C#N)C4CC4)c3)cc12 (stereo not drawn) [Compound 5004]
  pEC50: > 7.00

## CNC(=O)c1c(-c2ccc(F)cc2)oc2cc(N(CCCF)S(C)(=O)=O)c(-c3cccc(C(=O)NC(C)(C)C(F)(F)F)c3)cc12 [Compound 4005]
  pEC50: > 7.00

## CNC(=O)c1c(-c2ccc(F)cc2)oc2cc(N(CC(F)F)S(C)(=O)=O)c(-c3cccc(C(=O)OC)c3)cc12 [Compound 7001]
  pEC50: > 7.00

## CNC(=O)c1c(-c2ccc(F)cc2)oc2cc(N(CCF)S(C)(=O)=O)c(-c3cccc(C(=O)N4CCC[C@H]4C(=O)OC(C)(C)C)c3)cc12 [Compound 3029]
  pEC50: > 7.00

## CNC(=O)c1c(-c2ccc(F)cc2)oc2cc(N(CCCF)S(C)(=O)=O)c(-c3cccc(C(=O)NC4(C)CCC4)c3)cc12 [Compound 4022]
  pEC50: > 7.00
  EC50: 0.0077 µM

## CNC(=O)c1c(-c2ccc(F)cc2)oc2cc(N(CCF)S(C)(=O)=O)c(-c3cccc(C(=O)N4CCC[C@@H]4CO)c3)cc12 [Compound 3030]
  pEC50: 6.00 to 7.00
  EC50: 0.139 µM

## CNC(=O)c1c(-c2ccc(F)cc2)oc2cc(NCCCF)c(-c3cccc(C(=O)NC(C)(C)C(F)(F)F)c3)cc12 [Compound 5005]
  pEC50: > 7.00

## CNC(=O)c1c(-c2ccc(F)cc2)oc2cc(N(CCF)S(C)(=O)=O)c(-c3cccc(C(=O)N4CCC(NC(C)=O)C4)c3)cc12 (stereo not drawn) [Compound 3036]
  pEC50: < 6.00

## CNC(=O)c1c(-c2ccc(F)cc2)oc2cc(N(CCCF)S(C)(=O)=O)c(-c3cccc(C(=O)NCC(F)(F)C(F)(F)F)c3)cc12 [Compound 4007]
  pEC50: > 7.00
  EC50: 0.0053 µM

## CNC(=O)c1c(-c2ccc(F)cc2)oc2cc(N(CC3CC3)S(C)(=O)=O)c(-c3cccc(C(=O)NC(C)(C)C#N)c3)cc12 [Compound 2005]
  pEC50: > 7.00
  EC50: 0.0147 µM

## CNC(=O)c1c(-c2ccc(F)cc2)oc2cc(N(CC3CC3)S(C)(=O)=O)c(-c3cccc(C(=O)NC(CF)(CF)CF)c3)cc12 [Compound 2004]
  pEC50: > 7.00

## CC[C@@H](NC(=O)c1cccc(-c2cc3c(C(=O)NC)c(-c4ccc(F)cc4)oc3cc2N(CCF)S(C)(=O)=O)c1)C1CC1 [Compound 3007]
  pEC50: > 7.00
  EC50: 0.0057 µM

## CNC(=O)c1c(-c2ccc(F)cc2)oc2cc(N(CCCF)S(C)(=O)=O)c(-c3cccc(C(=O)NCC(F)(F)F)c3)cc12 [Compound 4010]
  pEC50: > 7.00

## CNC(=O)c1c(-c2ccc(F)cc2)oc2cc(N(CCF)S(C)(=O)=O)c(-c3cccc(C(=O)N4CCCC4c4ccc(Cl)cc4)c3)cc12 (stereo not drawn) [Compound 3018]
  pEC50: > 7.00

## CNC(=O)c1c(-c2ccc(F)cc2)oc2cc(N(CCCF)S(C)(=O)=O)c(-c3cccc(C(=O)NC4(C(F)(F)F)CC4)c3)cc12 [Compound 4023]
  pEC50: > 7.00

## CNC(=O)c1c(-c2ccc(F)cc2)oc2cc(N(CCF)S(C)(=O)=O)c(-c3cccc(C(=O)N4CCC[C@H]4C(=O)OC)c3)cc12 [Compound 3041]
  pEC50: 6.00 to 7.00

## CNC(=O)c1c(-c2ccc(F)cc2)oc2cc(N(CCCF)S(C)(=O)=O)c(-c3cccc(C(=O)NC(C)(C)C)c3)cc12 [Compound 4011]
  pEC50: > 7.00

## CCCC1CN(C(=O)c2ccccc2)CCN1C(=O)c1cccc(-c2cc3c(C(=O)NC)c(-c4ccc(F)cc4)oc3cc2N(CCF)S(C)(=O)=O)c1 (stereo not drawn) [Compound 3043]
  pEC50: > 7.00

## CNC(=O)c1c(-c2ccc(F)cc2)oc2cc(N(CCF)S(C)(=O)=O)c(-c3cccc(C(=O)N4CC[C@H](O)C4)c3)cc12 [Compound 3037]
  pEC50: < 6.00

## CNC(=O)c1c(-c2ccc(F)cc2)oc2cc(N(CCF)S(C)(=O)=O)c(-c3cccc(C(=O)N4CCC(c5cccc(Cl)c5)C4)c3)cc12 (stereo not drawn) [Compound 3040]
  pEC50: > 7.00
  EC50: 0.0413 µM

## CNC(=O)c1c(-c2ccc(F)cc2)oc2cc(N(CCCF)S(C)(=O)=O)c(-c3cccc(C(=O)NCC(F)F)c3)cc12 [Compound 4020]
  pEC50: > 7.00

## CNC(=O)c1c(-c2ccc(F)cc2)oc2cc(N(CCCF)S(C)(=O)=O)c(-c3cccc(C(=O)NCC(C)(C)C)c3)cc12 [Compound 4009]
  pEC50: > 7.00

## CNC(=O)c1c(-c2ccc(F)cc2)oc2cc(N(CCC(F)(F)F)S(C)(=O)=O)c(-c3cccc(C(=O)NCC(F)(F)C(F)(F)F)c3)cc12 [Compound 9003]
  pEC50: > 7.00
  EC50: 0.0076 µM

## CNC(=O)c1c(-c2ccc(F)cc2)oc2cc(N(CCF)S(C)(=O)=O)c(-c3cccc(C(=O)N4CCN(C)CC4c4ccccc4)c3)cc12 (stereo not drawn) [Compound 3019]
  pEC50: > 7.00

## CNC(=O)c1c(-c2ccc(F)cc2)oc2cc(N(CCCF)S(C)(=O)=O)c(-c3cccc(C(=O)NCC(C)C)c3)cc12 [Compound 4015]
  pEC50: > 7.00
  EC50: 0.0075 µM

## CNC(=O)c1c(-c2ccc(F)cc2)oc2cc(N(CCC(F)(F)F)S(C)(=O)=O)c(-c3cccc(C(=O)NC(C)(C)C(F)(F)F)c3)cc12 [Compound 9004]
  pEC50: > 7.00
  EC50: 0.0106 µM

## CNC(=O)c1c(-c2ccc(F)cc2)oc2cc(N(CCF)S(C)(=O)=O)c(-c3cccc(C(=O)NC(C)(C)CF)c3)cc12 [Compound 3013]
  pEC50: > 7.00

## CNC(=O)c1c(-c2ccc(F)cc2)oc2cc(N(CCCF)S(C)(=O)=O)c(-c3cccc(C(=O)NC(C)C(F)(F)F)c3)cc12 (stereo not drawn) [Compound 4003]
  pEC50: > 7.00
  EC50: 0.0093 µM

## CNC(=O)c1c(-c2ccc(F)cc2)oc2cc(N(C(F)F)S(C)(=O)=O)c(-c3cccc(C(=O)NC(CF)(CF)CF)c3)cc12 [Compound 6005]
  pEC50: > 7.00

## [2H]C([2H])([2H])C(NC(=O)c1cccc(-c2cc3c(C(=O)NC)c(-c4ccc(F)cc4)oc3cc2N(CCF)S(C)(=O)=O)c1)(C([2H])([2H])[2H])C([2H])([2H])[2H] [Compound 3006]
  pEC50: > 7.00

## CNC(=O)c1c(-c2ccc(F)cc2)oc2cc(N(CCC(F)(F)F)S(C)(=O)=O)c(-c3cccc(C(=O)NC(C)(C)C#N)c3)cc12 [Compound 9006]
  pEC50: > 7.00

## CNC(=O)c1c(-c2ccc(F)cc2)oc2cc(N(CC(F)F)S(C)(=O)=O)c(-c3cccc(C(=O)NC(C)(C)C(F)(F)F)c3)cc12 [Compound 7003]
  pEC50: > 7.00

## CNC(=O)c1c(-c2ccc(F)cc2)oc2cc(N(CCF)S(C)(=O)=O)c(-c3cccc(C(=O)N[C@@H](C)C4CC4)c3)cc12 [Compound 3009]
  pEC50: > 7.00

## CNC(=O)c1c(-c2ccc(F)cc2)oc2cc(N(C(F)F)S(C)(=O)=O)c(-c3cccc(C(=O)O)c3)cc12 [Compound 6002]
  pEC50: < 6.00
  EC50: > 10 µM

## CNC(=O)c1c(-c2ccc(F)cc2)oc2cc(N(CCCF)S(C)(=O)=O)c(-c3cccc(C(=O)NC(C4CC4)C4CC4)c3)cc12 [Compound 4025]
  pEC50: > 7.00

## CNC(=O)c1c(-c2ccc(F)cc2)oc2cc(N(CCCF)S(C)(=O)=O)c(-c3cccc(C(=O)NCC(C)(F)F)c3)cc12 [Compound 4019]
  pEC50: > 7.00
  EC50: 0.0098 µM

## CNC(=O)c1c(-c2ccc(F)cc2)oc2cc(N(CCF)S(C)(=O)=O)c(-c3cccc(C(=O)N4CCCC4c4cccnc4)c3)cc12 (stereo not drawn) [Compound 3022]
  pEC50: > 7.00

Source: US10125111B2, “Benzofuran compounds for the treatment of hepatitis C” (BRISTOL-MYERS SQUIBB COMPANY, priority 2015, dated 2018)
